The values that follow come from ChEMBL document CHEMBL1125860 (J Med Chem, 1991).

One may read the inhibition as the percentage by which the read-out fell short of the control. One may read the inhibition in vivo as the share of the control response that was lost under treatment. Low values mean a response near the control, high ones a response far below the control. Usually Inhibition stands for the relative decrease from the control value, in per cent.

Activity calls are given as the source filed them. The calls are words filed in the database; no cut-off is given here.

Test [1] deals with Aldo-keto reductase family 1 member B1 (Bos taurus) (UniProt P16116). Description: In vitro % decrease of aldose reductase measured in isolated partially purified bovine lens preparations at 10e-7 M concentration.
The subject of test [2] is Rattus norvegicus. The experiment in a line: In vivo inhibition of galactitol accumulation in diaphragm of rat at 49 mg/kg/day. The test is classed as functional.
In test [3] the test system is Rattus norvegicus. The experiment in a line: In vivo inhibition of galactitol accumulation in sciatic nerves of rat at 49 mg/kg/day. The following applies: Sciatic nerve. The test is classed as functional.
The species named for test [4] is Rattus norvegicus. Description: In vitro inhibition of sorbitol accumulation was measured in rat sciatic nerves incubated in the presence of 50 mM glucose at 10e-5 M concentration. The test is classed as functional, Sciatic nerve.
The species entered for test [5] is Rattus norvegicus. Description: In vitro inhibition of sorbitol accumulation was measured in rat sciatic nerves incubated in the presence of 50 mM glucose at 10e-6 M concentration. The test is classed as functional, Sciatic nerve.
For test [6], the target named is Aldo-keto reductase family 1 member B1 (Bos taurus) (UniProt P16116). The experiment in a line: In vitro % decrease of aldose reductase was measured in isolated partially purified bovine lens preparations at 10e-7 M concentration; Not active.
Test [7] deals with Rattus norvegicus. Description: In vivo inhibition of galactitol accumulation in diaphragm of rat at 48 mg/kg/day; Not significant. The test is classed as functional, organism-based.
The subject of test [8] is Rattus norvegicus. The experiment in a line: In vivo inhibition of galactitol accumulation in sciatic nerves of rat at 48 mg/kg/day. The test is classed as functional. The settings on record: Sciatic nerve.
The test system of test [9] is Rattus norvegicus. Description: In vivo inhibition of galactitol accumulation in diaphragm of rat at 50 mg/kg/day. The test is classed as functional.
In test [10] the test system is Rattus norvegicus. Description: In vivo inhibition of galactitol accumulation in sciatic nerves of rat at 50 mg/kg/day. The settings on record: Sciatic nerve. The test is classed as functional.
Test [11] relates to Rattus norvegicus. Description: In vivo inhibition of galactitol accumulation in diaphragm of rat at 27 mg/kg/day. The test is classed as functional.
In test [12] the test system is Rattus norvegicus. Description: In vivo inhibition of galactitol accumulation in sciatic nerves of rat at 27 mg/kg/day; Not significant. The test is classed as functional, organism-based. The following applies: Sciatic nerve.
Test [13] has as its system Rattus norvegicus. The experiment in a line: In vivo inhibition of galactitol accumulation in diaphragm of rat at 48 mg/kg/day. The test is classed as functional.
Test [14] relates to Rattus norvegicus. The experiment in a line: In vivo inhibition of galactitol accumulation in sciatic nerves of rat at 48 mg/kg/day; Not significant. The following applies: Sciatic nerve. The test is classed as functional, organism-based.
Test [15] concerns Rattus norvegicus. Description: In vivo inhibition of galactitol accumulation in diaphragm of rat at 26 mg/kg/day. The test is classed as functional.
Test [16] has as its system Rattus norvegicus. Description: In vivo inhibition of galactitol accumulation in sciatic nerves of rat at 26 mg/kg/day. The test is classed as functional. The following applies: Sciatic nerve.
In test [17] the test system is Rattus norvegicus. Description: In vivo inhibition of galactitol accumulation in sciatic nerves of rat at 25 mg/kg/day. The following applies: Sciatic nerve. The test is classed as functional.
Test [18] relates to Rattus norvegicus. The experiment in a line: In vivo inhibition of galactitol accumulation in diaphragm of rat at 25 mg/kg/day. The test is classed as functional.
For test [19], the system named is Rattus norvegicus. Description: In vivo inhibition of galactitol accumulation in sciatic nerves of rat at 2 mg/kg/day; Not significant. The test is classed as functional, organism-based. The following applies: Sciatic nerve.
Test [20] has as its system Rattus norvegicus. The experiment in a line: In vivo inhibition of galactitol accumulation in diaphragm of rat at 5 mg/kg/day. The test is classed as functional.
Test [21] relates to Rattus norvegicus. The experiment in a line: In vivo inhibition of galactitol accumulation in sciatic nerves of rat at 10 mg/kg/day. The test is classed as functional. The following applies: Sciatic nerve.
The test system of test [22] is Rattus norvegicus. The experiment in a line: In vivo inhibition of galactitol accumulation in sciatic nerves of rat at 5 mg/kg/day. The test is classed as functional. The settings on record: Sciatic nerve.
In test [23] the test system is Rattus norvegicus. Description: In vivo inhibition of galactitol accumulation in sciatic nerves of rat at 26 mg/kg/day; Not significant. The test is classed as functional, organism-based. The following applies: Sciatic nerve.
For test [24], the system named is Rattus norvegicus. Description: In vivo inhibition of galactitol accumulation in diaphragm of rat at 50 mg/kg/day; Not significant. The test is classed as functional, organism-based.
The subject of test [25] is Rattus norvegicus. Description: In vivo inhibition of galactitol accumulation in sciatic nerves of rat at 50 mg/kg/day; Not significant. The test is classed as functional, organism-based. The following applies: Sciatic nerve.
The target in test [26] is Aldo-keto reductase family 1 member B1 (Bos taurus) (UniProt P16116). The experiment in a line: In vitro % decrease of […] reductase was measured in isolated partially purified bovine lens preparations at 10e-7 M concentration.
The test system of test [27] is Rattus norvegicus. Description: In vivo inhibition of galactitol accumulation in diaphragm of rat at 53 mg/kg/day. The test is classed as functional.
The test system of test [28] is Rattus norvegicus. The experiment in a line: In vivo inhibition of galactitol accumulation in sciatic nerves of rat at 53 mg/kg/day; Not significant. The test is classed as functional, organism-based. The following applies: Sciatic nerve.
Test [29] deals with Rattus norvegicus. Description: In vivo inhibition of galactitol accumulation in diaphragm of rat at 10 mg/kg/day. The test is classed as functional.

In turn, `CCOc1ccc2c(C(F)(F)F)c(OC)ccc2c1C(=O)N(C)CC(=O)O` yielded an inhibition in test [1] of 65%. Moreover, the inhibition in vivo at 49 mg/kg/day in the test with Rattus norvegicus [2] worked out at 57%; with Rattus norvegicus [3], 45%. Moreover, the results for the Inhibition in the test filed under Rattus norvegicus [4] and in the test filed under Rattus norvegicus [5] were 55% and 30%, respectively.

Take `CCCCc1ccc2c(C(F)(F)F)c(OC)ccc2c1C(=O)N(C)CC(N)=O`: the inhibition entry (in test [6]; with Rattus norvegicus [7]) was “inactive” throughout. The inhibition in vivo at 48 mg/kg/day in the test with Rattus norvegicus [8] was found to be 30%.

On to `CCCOc1ccc2c(C(F)(F)F)c(OC)ccc2c1C(=O)N(C)CC(=O)O`, for which the inhibition in [1] is 46%. The inhibition in vivo at 50 mg/kg/day in the test on Rattus norvegicus [9] came to 57%; in the test with Rattus norvegicus [10], 48%.

In test [1], `CCOC(=O)N(CC(=O)O)C(=O)c1c(OCC(F)(F)F)ccc2c(C(F)(F)F)c(OC)ccc12` showed an inhibition of 78%. The compound also gave an inhibition in vivo at 27 mg/kg/day in the test with Rattus norvegicus [11] of 39%. Besides, the inhibition result in the test with Rattus norvegicus [12] is “inactive”. Also, the Inhibition is listed as 72% in the test filed under Rattus norvegicus [4] and 42% in the test filed under Rattus norvegicus [5].

In test [1], `COc1ccc2c(C(=O)N(C)CC(=O)O)c(C(F)(F)F)ccc2c1C(F)(F)F` showed an inhibition of 32%. The same compound displayed an inhibition in vivo at 48 mg/kg/day in the test on Rattus norvegicus [13] of 52%. Moreover, in the test on Rattus norvegicus [14], the inhibition result is “inactive”. Moreover, the Inhibition in the test filed under Rattus norvegicus [4] stood at 65%; in the test filed under Rattus norvegicus [5], 35%.

Regarding `COc1ccc2c(C(=S)N(C)CC(=O)O)c(OCC(F)(F)F)ccc2c1C(F)(F)F`, the inhibition in [1] was found to be 86%. Besides, the inhibition in vivo at 26 mg/kg/day was found to be 88% in the test with Rattus norvegicus [15] and 33% in the test on Rattus norvegicus [16].

As to `COc1ccc2c(C(=S)N(C)CC(=O)O)ccc(F)c2c1C(F)(F)F`, the inhibition in [1] is 84%. The figures for the inhibition in vivo at 25 mg/kg/day in the test on Rattus norvegicus [17] and in the test on Rattus norvegicus [18] were 94% and 90%, respectively.

Consider `COc1ccc2c(C(=S)N(C)CC(N)=O)c(F)ccc2c1C(F)(F)F`, for which the inhibition entry in the test on Rattus norvegicus [19] was “inactive”. Also, the inhibition in vivo at 5 mg/kg/day is 80% with Rattus norvegicus [20] and 33% in the test with Rattus norvegicus [22]. The inhibition in vivo at 10 mg/kg/day in the test with Rattus norvegicus [21] was 54%.

The compound `COc1ccc2c(C(F)(F)F)c(OC)ccc2c1C(=S)N(C)CC(=O)O` had an inhibition in test [1] of 91%. The compound further returned an inhibition in vivo at 26 mg/kg/day in the test with Rattus norvegicus [15] of 71%. For the same compound, the inhibition entry in the test with Rattus norvegicus [23] was “inactive”.

In turn, `COc1ccc2c(C(=O)N(C)CC(=O)O)c(Cc3ccccc3)ccc2c1C(F)(F)F` registered an inhibition in test [1] of 52%. Further, the inhibition result in the test with Rattus norvegicus [24] and in the test with Rattus norvegicus [25] was “inactive” each time.

Consider `COC(=O)N(CC(=O)O)C(=O)c1c(OCC(F)(F)F)ccc2c(C(F)(F)F)c(OC)ccc12`, for which, in test [1], the inhibition was 83%. This compound had an inhibition in vivo at 27 mg/kg/day with Rattus norvegicus [11] of 49%. Besides, the inhibition entry in the test on Rattus norvegicus [12] was “inactive”. The Inhibition in the test listed under Rattus norvegicus [4] stood at 64%; in the test listed under Rattus norvegicus [5] it was 36%.

Take `COc1ccc2c(C(=S)N(C)CC(=O)O)c(C)ccc2c1C(F)(F)F`: the inhibition in [26] was determined as 70%. In addition, the inhibition in vivo at 26 mg/kg/day in the test on Rattus norvegicus [15] amounted to 91%. In addition, the inhibition entry with Rattus norvegicus [23] is “inactive”.

`COC(=O)N(CC(=O)O)C(=O)c1c(Cl)ccc2c(C(F)(F)F)c(OC)ccc12` registered an inhibition in test [1] of 85%. In the test with Rattus norvegicus [15], this compound returned an inhibition in vivo at 26 mg/kg/day of 68%. Besides, the Inhibition is recorded as 75% in the test filed under Rattus norvegicus [4] and 49% in the test listed under Rattus norvegicus [5].

`COc1ccc2c(C(=S)N(C)CC(=O)O)cc(-c3ccccc3)cc2c1C(F)(F)F`: the inhibition in [1] was determined as 93%. For the same compound, in the test with Rattus norvegicus [27], the inhibition in vivo at 53 mg/kg/day was found to be 82%. Moreover, the inhibition entry in the test with Rattus norvegicus [28] is “inactive”. For the same compound, the results for the Inhibition in the test listed under Rattus norvegicus [4] and in the test filed under Rattus norvegicus [5] were 87% and 36%, respectively.

`COc1ccc2c(C(=O)N(C)CC(=O)O)c(Oc3ccccc3)ccc2c1C(F)(F)F` showed an inhibition in [1] of 83%. Also, the figures for the inhibition in vivo at 48 mg/kg/day in the test with Rattus norvegicus [13] and with Rattus norvegicus [8] were 67% and 32%, respectively. For the same compound, the results for the Inhibition in the test filed under Rattus norvegicus [4] and in the test filed under Rattus norvegicus [5] were 78% and 45%, respectively.

As to `CCOC(=O)NC(=O)CN(C)C(=O)c1c(F)ccc2c(C(F)(F)F)c(OC)ccc12`, the inhibition result in test [6] is “inactive”. The inhibition in vivo at 5 mg/kg/day was determined as 22% in the test with Rattus norvegicus [20] and 36% with Rattus norvegicus [22]. Further, the inhibition in vivo at 10 mg/kg/day came to 59% with Rattus norvegicus [21] and 41% in the test on Rattus norvegicus [29].
